Measurements from ChEMBL document CHEMBL1201862, “PubChem BioAssay data set” (2004).
The source made the active and inactive calls.

Columns and labels:
[1] = DRD fibroblast viability loss – cell-based, non-viral oncogenic, luminescence, dose response (AID 1934); format: functional; settings: Homo sapiens
[2] = Luminescence Cell-Based Dose Response HTS to Identify Inhibitors of 5'UTR Stem-Loop Driven Prion Protein mRNA Translation in H4 Neuroglioblastoma Cells. [Related pubchem assays: 1827 (Project Summary), 1813 (Primary HTS)]; format: functional
[3] = alpha-synuclein stem-loop luciferase translation blockers – H4 neuroglioma cells, luminescence, confirmation (AID 1988); format: functional, cell-based
[4] = luciferase reporter signal suppression in cells – H4 neuroglioma cells, luminescence, dose response (AID 1990); format: functional, cell-based
[5] = OVCAR4 cell viability loss – plate reader, dry powder, SA11, cytotoxicity control for PAX8 inhibitor project, dose response (AID 743150); format: functional, cell-based; settings: OVCAR-4
BJ [6] = assay: growth inhibition of engineered Ras-driven BJ cells – cell-based, alamar blue fluorescence, cherrypicked samples, dose response (AID 2631); format: functional; settings: Homo sapiens;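 also: confirmatory dose-response assay in RAS-dependent BJ fibroblasts engineered with TERT, LT and ST, with cytotoxicity read by fluorescence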
[7] = IGROV1 cell killing – plate reader, dry powder samples, PAX8 inhibitor project, dose response (AID 743043); format: functional, cell-based; settings: IGROV-1
BJ [8] = assay: BJ-TERT-LT-ST fibroblast viability loss – cell-based, RAS-independent, luminescence, dose response (AID 1935); format: functional; settings: Homo sapiens;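 also: BJ fibroblasts immortalized with TERT plus LT and ST oncogenes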
[9] = toxicity toward immortalized ovarian surface epithelium – cell-based, plate reader, dry powder samples, cytotoxicity control for PAX8 inhibitor project, dose response (AID 743045); format: functional
[10] = inhibitors acting on PAX2 in cells – cell-based, plate reader, dry powder samples, selectivity assay for PAX8 inhibitor project, dose response (AID 743048); format: functional;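 also: HEK293 cells carrying a WT1 promoter luciferase reporter driven by expressed Pax2; potency is for inhibition of Pax2 driven reporter signal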
[11] = PAX8-dependent cell viability loss – plate reader, dry powder, dose response (AID 743049); format: functional, cell-based
[12] = PAX5 cellular inhibition readout – cell-based, plate reader, dry powder samples, selectivity assay for PAX8 inhibitor project, dose response (AID 743047); format: functional;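 also: HEK293 cells carrying a Pax5 driven CD19 promoter luciferase reporter; potency of inhibitors that lower reporter luminescence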
[13] = OVCAR-3 cell viability loss – plate reader, dry powder samples, PAX8 inhibitor project, dose response (AID 743044); format: functional, cell-based
BJ [14] = assay: cells; format: functional, cell-based; settings: Homo sapiens
[15] = COV434 cell viability loss – plate reader, dry powder, SA7, cytotoxicity control for PAX8 inhibitor project, dose response (AID 743145); format: functional, cell-based
Paired box protein Pax-8 = Paired box protein Pax-8 (Homo sapiens, UniProt Q06710); assay: PAX8 transcriptional activity inhibition in RMG-I – RMG-I cells, luciferase, cherry-pick, dose response (AID 687027); format: functional, cell-based;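 also: luciferase reporter driven by Pax8 target thyroperoxidase promoter measured by SteadyGlo luminescence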
Chain of Paired box protein Pax-8 (Q06710 whole entry): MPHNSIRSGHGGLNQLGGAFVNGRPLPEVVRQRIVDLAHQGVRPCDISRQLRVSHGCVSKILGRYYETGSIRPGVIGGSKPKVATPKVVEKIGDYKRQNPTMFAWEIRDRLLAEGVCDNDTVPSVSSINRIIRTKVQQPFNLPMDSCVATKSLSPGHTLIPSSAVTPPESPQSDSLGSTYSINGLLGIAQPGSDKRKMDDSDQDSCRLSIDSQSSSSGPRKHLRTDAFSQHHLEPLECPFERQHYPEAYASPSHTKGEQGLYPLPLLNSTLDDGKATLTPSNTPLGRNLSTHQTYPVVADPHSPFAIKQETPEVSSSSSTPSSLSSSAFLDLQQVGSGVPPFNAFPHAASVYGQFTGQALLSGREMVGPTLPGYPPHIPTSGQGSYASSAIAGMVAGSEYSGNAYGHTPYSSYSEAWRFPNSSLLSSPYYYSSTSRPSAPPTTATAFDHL

[16] = COV362 cell viability loss – plate reader, dry powder, SA12, cytotoxicity control for PAX8 inhibitor project, dose response (AID 743144); format: functional, cell-based
BJ [17] = assay: BJ-TERT fibroblast viability loss – cell-based, RAS-independent, luminescence, dose response (AID 1933); format: functional; settings: Homo sapiens
[18] = OV-90 cell viability loss – plate reader, dry powder, SA8, PAX8 inhibitor project, dose response (AID 743149); format: functional, cell-based
[19] = A2780 cell killing – plate reader, dry powder samples, cytotoxicity control, dose response (AID 743046); format: functional, cell-based
A549 = assay: viability loss in A549 cells – cell-based, plate reader, cherry-pick samples, cytotoxicity control, dose response (AID 687028); format: functional; settings: Homo sapiens
[20] = HEK-293T viability loss after treatment – luminescence, T-cell screen hits, cytotoxicity control for TCR NF-kB inhibitor project, dose response (AID 489026); format: functional, cell-based;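 also: cells exposed to compound about 14 hours before the viability readout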
[21] = microbe, parasite or virus in culture; format: functional; settings: Mycobacterium tuberculosis
[22] = target: Matrix metalloproteinase-14 (Homo sapiens, UniProt P50281); assay: Dose Response confirmation of uHTS hits for a small molecule inhibitors of MT1-MMP activation in a fluorescence assay set 1.; format: functional
Protein Wnt-3a = Protein Wnt-3a (Mus musculus, UniProt P27467); assay: antagonism of Wnt3a pathway luciferase reporter – Wnt-LIGHT cells, luminescence, selectivity assay for Gli-SUFU antagonist project, dose response (AID 651570); format: functional; settings: read-out: IC50_Mean;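 also: Wnt-LIGHT reporter cells stimulated with conditioned medium from Wnt3a-producing cells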
Chain of Protein Wnt-3a (P27467 whole entry): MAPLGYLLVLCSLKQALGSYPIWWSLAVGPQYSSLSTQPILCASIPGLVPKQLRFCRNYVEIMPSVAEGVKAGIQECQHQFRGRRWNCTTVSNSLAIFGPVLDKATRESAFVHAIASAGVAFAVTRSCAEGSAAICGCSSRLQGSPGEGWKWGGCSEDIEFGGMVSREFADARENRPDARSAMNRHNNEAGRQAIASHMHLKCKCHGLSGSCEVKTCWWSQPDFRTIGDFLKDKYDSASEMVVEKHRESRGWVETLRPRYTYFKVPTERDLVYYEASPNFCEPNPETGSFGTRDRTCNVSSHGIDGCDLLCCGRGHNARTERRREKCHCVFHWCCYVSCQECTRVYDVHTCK

[23] = HEK293 Cytotoxicity Assay Measured in Cell-Based System Using Plate Reader - 7071-01_Inhibitor_Dose_CherryPick_Activity_Set2.; format: functional
HeLa = assay: viability loss in HeLa cells – cell-based, ATP luminescence, cherry-pick samples, cytotoxicity control, dose response (AID 687004); format: functional; settings: Homo sapiens
HEK293 = assay: viability loss in HEK293T cells – cell-based, ATP luminescence, cherry-pick samples, cytotoxicity control, dose response (AID 687005); format: functional; settings: Homo sapiens;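 also: cells exposed to compound for 48 hours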
[24] = target: Metabotropic glutamate receptor 3 (Rattus norvegicus, UniProt P31422); assay: inhibitors of rat mGlu3 Galpha15 signaling – TREx293 cells, calcium flux, mGlu3 NAM project, dose response (AID 651840); format: functional
Chain of Metabotropic glutamate receptor 3 (P31422 whole entry): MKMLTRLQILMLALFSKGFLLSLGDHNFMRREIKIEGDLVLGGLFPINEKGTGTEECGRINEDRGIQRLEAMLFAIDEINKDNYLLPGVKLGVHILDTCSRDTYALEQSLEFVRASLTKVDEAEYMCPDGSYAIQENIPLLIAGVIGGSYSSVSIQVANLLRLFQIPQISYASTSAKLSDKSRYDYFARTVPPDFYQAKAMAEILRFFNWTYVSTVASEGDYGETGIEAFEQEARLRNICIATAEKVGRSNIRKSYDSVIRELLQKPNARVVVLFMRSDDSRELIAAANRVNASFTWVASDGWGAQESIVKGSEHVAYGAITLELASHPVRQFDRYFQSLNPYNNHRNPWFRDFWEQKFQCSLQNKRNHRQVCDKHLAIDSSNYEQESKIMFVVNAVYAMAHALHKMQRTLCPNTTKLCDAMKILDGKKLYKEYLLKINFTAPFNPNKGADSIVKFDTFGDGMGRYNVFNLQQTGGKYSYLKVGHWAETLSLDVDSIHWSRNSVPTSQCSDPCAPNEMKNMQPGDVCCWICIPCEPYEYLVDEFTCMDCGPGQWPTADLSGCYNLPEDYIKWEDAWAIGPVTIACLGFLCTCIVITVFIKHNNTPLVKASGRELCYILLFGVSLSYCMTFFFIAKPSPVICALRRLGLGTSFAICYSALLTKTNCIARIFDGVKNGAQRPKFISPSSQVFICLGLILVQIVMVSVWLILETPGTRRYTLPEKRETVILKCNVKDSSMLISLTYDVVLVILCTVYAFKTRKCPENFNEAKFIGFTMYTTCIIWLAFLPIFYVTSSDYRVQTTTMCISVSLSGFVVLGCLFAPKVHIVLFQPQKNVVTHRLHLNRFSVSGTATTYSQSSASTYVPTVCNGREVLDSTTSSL

[25] = target: Scavenger receptor class B member 1 (Mus musculus, UniProt Q61009); assay: blockers of DiI-HDL lipid transfer via SR-BI – cell-based, ldlA[mSR-BI] CHO, DiI fluorescence, dry powder, set 10, dose response (AID 624029); format: functional
Chain of Scavenger receptor class B member 1 (Q61009 whole entry): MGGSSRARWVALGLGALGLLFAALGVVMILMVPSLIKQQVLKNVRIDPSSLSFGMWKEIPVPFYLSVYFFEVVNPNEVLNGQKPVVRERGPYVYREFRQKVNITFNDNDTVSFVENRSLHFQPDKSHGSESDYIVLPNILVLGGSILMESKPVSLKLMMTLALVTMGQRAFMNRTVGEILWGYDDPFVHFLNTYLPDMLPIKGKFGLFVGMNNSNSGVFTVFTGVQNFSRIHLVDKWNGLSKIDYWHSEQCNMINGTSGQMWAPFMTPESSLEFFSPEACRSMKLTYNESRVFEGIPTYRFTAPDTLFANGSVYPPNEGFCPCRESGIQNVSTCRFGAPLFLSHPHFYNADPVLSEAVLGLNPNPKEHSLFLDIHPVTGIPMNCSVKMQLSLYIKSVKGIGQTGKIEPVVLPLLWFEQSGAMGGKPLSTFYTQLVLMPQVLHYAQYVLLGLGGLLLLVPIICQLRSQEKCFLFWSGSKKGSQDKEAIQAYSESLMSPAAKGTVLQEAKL

[26] = target: Delta-type opioid receptor (Homo sapiens, UniProt P41143); assay: Late-stage results from the probe development effort to identify antagonists of OPRK1: fluorescence-based cell-based dose response OPRD1 counterscreen.; format: functional
Chain of Delta-type opioid receptor (P41143 whole entry): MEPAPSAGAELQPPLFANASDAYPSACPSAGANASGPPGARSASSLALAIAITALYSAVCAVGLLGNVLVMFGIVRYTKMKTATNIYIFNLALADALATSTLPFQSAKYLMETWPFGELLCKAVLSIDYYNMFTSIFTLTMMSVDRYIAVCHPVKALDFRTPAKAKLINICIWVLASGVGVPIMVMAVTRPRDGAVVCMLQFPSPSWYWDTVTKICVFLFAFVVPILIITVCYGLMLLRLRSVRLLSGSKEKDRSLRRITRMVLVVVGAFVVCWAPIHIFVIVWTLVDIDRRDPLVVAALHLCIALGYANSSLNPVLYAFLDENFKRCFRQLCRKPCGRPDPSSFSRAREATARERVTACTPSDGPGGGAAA

Mu-type opioid receptor = Mu-type opioid receptor (Homo sapiens, UniProt P35372); assay: Late-stage results from the probe development effort to identify antagonists of OPRK1: luminescence-based cell-based dose response OPRM1 counterscreen.; format: functional
Chain of Mu-type opioid receptor (P35372 whole entry): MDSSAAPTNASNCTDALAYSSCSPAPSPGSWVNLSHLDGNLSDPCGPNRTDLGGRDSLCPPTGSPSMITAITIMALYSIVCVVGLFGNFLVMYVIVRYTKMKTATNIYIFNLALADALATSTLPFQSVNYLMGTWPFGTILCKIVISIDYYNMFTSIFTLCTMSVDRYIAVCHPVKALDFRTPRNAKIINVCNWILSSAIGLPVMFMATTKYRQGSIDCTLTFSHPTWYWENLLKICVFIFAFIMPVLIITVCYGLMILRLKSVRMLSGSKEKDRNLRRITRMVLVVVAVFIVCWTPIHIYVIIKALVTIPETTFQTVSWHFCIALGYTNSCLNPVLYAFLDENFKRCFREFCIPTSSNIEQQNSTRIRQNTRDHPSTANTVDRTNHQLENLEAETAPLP

Beta-lactamase [27] = target: T1, Beta-lactamase (Pseudomonas aeruginosa, UniProt Q79MP6); assay: […] counterscreen for selective VIM-2 inhibitors: dose response biochemical high throughput screening assay to identify inhibitors of IMP-1 metallo-beta-lactamase.
T1 sequence (Q79MP6 whole entry): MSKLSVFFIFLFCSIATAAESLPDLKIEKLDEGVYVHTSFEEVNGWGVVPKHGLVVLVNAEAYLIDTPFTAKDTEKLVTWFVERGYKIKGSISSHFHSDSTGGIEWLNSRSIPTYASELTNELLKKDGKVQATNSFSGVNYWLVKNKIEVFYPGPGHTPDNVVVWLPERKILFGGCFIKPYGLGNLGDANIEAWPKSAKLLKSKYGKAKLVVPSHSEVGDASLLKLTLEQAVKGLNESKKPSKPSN

Beta-lactamase [28] = target: T1, Beta-lactamase; assay: inhibition of IMP-1 beta-lactamase activity – biochemical, epi-absorbance, selectivity assay for VIM-2 inhibitor project, dose response (AID 1920)
Beta-lactamase [29] = target: Beta-lactamase (Salmonella choleraesuis (strain SC-B67), UniProt Q5J463); assay: Epi-absorbance-based counterscreen for selective VIM-2 inhibitors: dose response biochemical high throughput screening assay to identify inhibitors of TEM-1 serine-beta-lactamase.
Chain of Beta-lactamase (Salmonella choleraesuis (strain SC-B67), UniProt Q5J463) (Q5J463 whole entry): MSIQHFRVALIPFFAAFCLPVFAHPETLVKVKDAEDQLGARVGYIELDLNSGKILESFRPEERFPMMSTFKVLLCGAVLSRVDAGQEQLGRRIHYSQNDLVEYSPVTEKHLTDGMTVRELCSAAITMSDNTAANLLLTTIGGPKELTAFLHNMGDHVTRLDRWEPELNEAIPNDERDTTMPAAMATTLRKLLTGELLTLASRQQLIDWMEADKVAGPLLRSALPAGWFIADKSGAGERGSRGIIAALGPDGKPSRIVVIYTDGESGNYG

[30] = potency of ADAM10 substrate cleavage blockers – biochemical, QFRET, dose response (AID 743254);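 also: ADAM10 enzyme with the DM2 quenched FRET peptide as substrate; EDANS fluorescence gain as the protease cuts the substrate; inhibitor potency against ADAM10 proteolytic activity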
[31] = target: T2, Disintegrin and metalloproteinase domain-containing protein 17 (Homo sapiens, UniProt P78536); assay: inhibition of ADAM17 substrate cleavage – biochemical, quenched FRET substrate, counter-screen for ADAM10 exosite inhibitor project, dose response (AID 743253)
T2 sequence (P78536 whole entry, the tested form may be a part): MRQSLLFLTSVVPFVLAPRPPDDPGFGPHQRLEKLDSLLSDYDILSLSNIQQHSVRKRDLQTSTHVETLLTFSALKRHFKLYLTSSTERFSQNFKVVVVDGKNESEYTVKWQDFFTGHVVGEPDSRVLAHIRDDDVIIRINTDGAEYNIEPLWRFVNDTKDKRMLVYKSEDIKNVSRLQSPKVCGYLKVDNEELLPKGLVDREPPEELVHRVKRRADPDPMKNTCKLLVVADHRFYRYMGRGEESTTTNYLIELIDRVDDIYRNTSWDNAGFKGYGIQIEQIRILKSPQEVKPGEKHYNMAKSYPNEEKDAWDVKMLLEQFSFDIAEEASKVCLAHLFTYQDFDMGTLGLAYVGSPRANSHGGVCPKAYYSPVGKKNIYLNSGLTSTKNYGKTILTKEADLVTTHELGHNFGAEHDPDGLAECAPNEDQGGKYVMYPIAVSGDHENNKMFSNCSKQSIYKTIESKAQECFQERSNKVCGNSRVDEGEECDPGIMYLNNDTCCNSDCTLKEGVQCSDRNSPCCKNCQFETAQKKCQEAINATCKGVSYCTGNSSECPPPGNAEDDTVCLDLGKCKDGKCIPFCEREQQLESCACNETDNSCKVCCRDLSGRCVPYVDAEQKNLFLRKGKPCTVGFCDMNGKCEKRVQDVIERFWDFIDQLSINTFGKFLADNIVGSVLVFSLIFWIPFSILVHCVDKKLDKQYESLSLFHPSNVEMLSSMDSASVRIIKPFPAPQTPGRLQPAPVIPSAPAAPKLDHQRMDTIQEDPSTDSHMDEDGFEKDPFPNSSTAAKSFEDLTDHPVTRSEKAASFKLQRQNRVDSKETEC

[32] = target: T2, Disintegrin and metalloproteinase domain-containing protein 17; assay: exosite inhibitors of ADAM17, dose response, biochemical (AID 743260)

CCOc1ccc2c(c1)C(C)=CC(C)(C)N2S(=O)(=O)c1ccc(NC(C)=O)cc1
EC50 [1]: 0.722 µM (active) | EC50 [2]: 0.162 µM (active) | EC50 [3]: 0.129 µM (active) | EC50 [4]: 0.199 µM (active) | AC50 [5]: 1.83 µM (active) | EC50 (BJ [6]): < 0.104 µM (active) | AC50 [7]: 15.9 µM (active) | EC50 (BJ [8]): 0.428 µM (inconclusive) | AC50 [9]: 2.54 µM (active) | AC50 [10]: 31.8 µM (active) | AC50 [11]: 12.1 µM (active) | AC50 [12]: 89.2 µM (active) | AC50 [13]: 41.1 µM (active) | EC50 (BJ [14]): 1.54 µM (active) | AC50 [15]: 1.53 µM (active) | AC50 (Paired box protein Pax-8): 1.61 µM (active) | AC50 [16]: 4.1 µM (active) | EC50 (BJ [17]): 0.642 µM (active) | AC50 [18]: 2.6 µM (active) | AC50 [19]: 4.06 µM (active)

Oc1cc(-c2cccc(F)c2)nc2ccccc12
AC50 (A549): 18.8 µM (active) | IC50 [20]: > 80 µM (inactive)

COc1ccccc1C(=O)NC(=S)/C=C1/N(C)c2ccccc2C1(C)C
CC50 [21]: > 40 µM (active) | IC50 [22]: > 80 µM (inactive) | IC50 (Protein Wnt-3a): 15.2 µM (active)

Cc1noc(C)c1NC(=O)Nc1ccc2c(c1)C(=O)N(C)[C@@H]1CC[C@H](CC(=O)N[C@H]3CCN(Cc4ccccc4)C3)O[C@@H]1CO2
AC50 [23]: 29.7 µM (active) | AC50 (HeLa): > 47 µM (inactive) | AC50 (HEK293): 29.7 µM (active)

COc1ccc(C#Cc2ccc(C(=O)N3CCCC(O)(Cc4ccccc4)C3)cc2)cc1 (stereo not drawn)
IC50 [24]: 8.87 µM (active)

CC(C)NC(=O)Nc1ccc2c(c1)C(=O)N([C@@H](C)CO)C[C@@H](C)[C@H](CN(C)S(=O)(=O)c1ccc(Cl)cc1)O2
AC50 [25]: 0.154 µM (active)

COC(=O)c1cc(Br)cnc1N1CCC(NC2CCCCC2)C1 (stereo not drawn)
IC50 [26]: > 50 µM (inactive) | IC50 (Mu-type opioid receptor): 20 µM (inactive)

O=C(c1ccco1)N1N=C(c2ccc(Cl)cc2)CC1c1ccco1 (stereo not drawn)
IC50 (Beta-lactamase [27]): > 59.6 µM (inactive) | IC50 (Beta-lactamase [28]): > 59.6 µM (inactive) | IC50 (Beta-lactamase [29]): > 59.6 µM (inactive)

O=C(NCC1CCCO1)C(c1cccs1)N(Cc1ccccc1)C(=O)c1ccc(-c2ccccc2)[nH]1 (stereo not drawn)
IC50 [30]: > 69.5 µM (inactive) | IC50 [31]: > 69.5 µM (inactive) | IC50 [32]: > 69.5 µM (inactive)
